Patent US10960020B2, “Modulation of PCSK9 and LDLR through DRP1 inhibition” (THE BRIGHAM AND WOMEN'S HOSPITAL, INC., priority 2016, dated 2021)

Tested on: PCSK9 secretion in HepG2 cells
Assay: Secreted PCSK9 ELISA, HepG2 media
Type: cell-based, human
Settings: HepG2, 24 hours; chloroquine 50 μmol/L, Mdivi-1 50 μmol/L, MG132 0.3 μmol/L
Experimental: Pitavastatin and T0901317 were synthesized and provided by Kowa Company, Ltd. (Tokyo, Japan), and treated at a dose of 1 μM in all experiments. […] Mdivi-1 in DMSO vehicle was added at a concentration of 50 μM in all experiments. Mdivi-1 in DMSO vehicle was added to cell culture media in a 50 mL tube, vortexed hard for several minutes and then incubated at 37° C. prior to adding to cells to ensure the compound was fully solubilized.
HepG2 cells were obtained from ATCC (Manassas, Va.), and cultured in EMEM with L-glutamine (ATCC) medium, 1% pen/strep, with and without 10% FBS (Thermo Fisher Scientific, Waltham, Mass.) in 12-well plates (Corning, Durham, N.C.). HepG2 cells were plated at a density of 60-70% prior to treatment to avoid clumping. […] Cell viability was assessed by Trypan Blue exclusion using live/dead cell counting on a Countess™ II LT automated cell counter (Thermo Fisher Scientific).

CCN(CC)CCCC(C)Nc1ccnc2cc(Cl)ccc12 (stereo not shown) [chloroquine]
PCSK9 secretion by ELISA (in words): increased
